The values below come from patent US12377175B2, “Trifunctional constructs with tunable pharmacokinetics useful in imaging and anti-tumor therapies” (Cornell University, priority 2016, dated 2025).

Data set [1] concerns LNCaP xenograft tumor-bearing mice. As to the kind of experiment: PET/CT imaging of 66Ga-RPS ligands in LNCaP xenograft mice. It counts as in vivo, mouse. Particulars: 66Ga PET/CT; for maximum uptake in the tumor (image-derived): over 1, 3, 6 and 24 h post injection. As for the experimental part: (§1) Inoculation of mice with xenografts: All animal studies were approved by the Institutional Animal Care and Use Committee of Weill Cornell Medicine and were undertaken in accordance with the guidelines set forth by the USPHS Policy on Humane Care and Use of Laboratory Animals. Animals were housed under standard conditions in approved facilities with 12 h light/dark cycles. Food and water was provided ad libitum throughout the course of the studies. Hairless male nu/nu mice were purchased from the Jackson Laboratory. For inoculation in mice, LNCaP cells were suspended at 4×10^7 cells/mL in a 1:1 mixture of PBS:Matrigel (BD Biosciences). Each mouse was injected in the left flank with 0.25 mL of the cell suspension. The mice were imaged when the tumors reached approximately 200-400 mm^3, while biodistributions were conducted when tumors were in the range 100-400 mm^3.
Imaging of ^66Ga-RPS ligands in LNCaP xenograft mice: LNCaP xenograft tumor-bearing mice (2-3 per compound) injected intravenously with a bolus injection of 0.56-5.4 MBq (15-145 μCi) of the ^66Ga-labeled ligand. The specific activity of the tracers was in the range 14.8-47 MBq/μmol (0.4-1.27 mCi/μmol). The mice were imaged using PET/CT (Inveon™; Siemens Medical Solutions, Inc.) at 1, 3, 6 and 24 h post-injection following inhalation anesthetization with isoflurane. Total acquisition time was 30 min for the 1 h, 3 h and 6 h images, and 60 min for 24 h time point. A CT scan was obtained immediately before the acquisition for both anatomical co-registration and attenuation correction. Images were reconstructed using the Inveon™ software supplied by the vendor. Image-derived tumor and kidney uptake was estimated by comparison to a 10% injected dose […] standard introduced into the imaging field of view. The standard was prepared by dilution of 10% of the injected activity to 1 mL with saline. Volumes of interest (VOIs) were drawn with the aid of the CT and confirmed by PET. The contents of the VOIs were integrated and the calculated counts were converted to […] by direct comparison to the aforementioned standard following correction for activity injected.

The test system is the same in data set [2]. As to the kind of experiment: Biodistribution studies of 177Lu-labeled ligands in LNCaP xenograft mice. Type of data set: in vivo, mouse. Particulars: corresponding 177Lu-labeled compound; 4 h p.i. (a). The method, then:
as §1
Biodistribution studies of 177Lu-labeled ligands in LNCaP xenograft mice: LNCaP xenograft tumor-bearing mice (5 per time point per compound) were injected intravenously with a bolus injection of 348-851 kBq (9.4-23 μCi) and 37-50 ng ([…]) of each ligand. The mice were sacrificed at 4, 24 and 96 h post injection. A blood sample was removed, and a full biodistribution study was conducted on the following organs (with contents): heart, lungs, liver, small intestine, large intestine, stomach, spleen, pancreas, kidneys, muscle, bone and tumor. Tissues were weighed and counted on a 2470 Wizard^2 Automatic Gamma Counter (Perkin Elmer). Counts were corrected for decay and for activity injected, and tissue uptake was expressed as percent injected dose per gram (% ID/g). Standard error measurement was calculated for each data point.

With `O=C(O)CCC(NC(=O)NC(CCCCNC(=O)C(Cc1ccc2ccccc2c1)NC(=O)C1CCC(CNC(=O)CN2CCN(CC(=O)O)CCN(CC(=O)O)CCN(CC(=O)O)CC2)CC1)C(=O)O)C(=O)O` (stereo not drawn) [66Ga-PSMA-617, metal not drawn, reference compound], in data set [1], the “maximum kidney uptake (image-derived)” value worked out at 0.4±0.1 % ID/cm^3, the “time of maximum uptake in the tumor” value turned out to be 1 h and the “maximum uptake in the tumor (image-derived)” value worked out at 3.1±0.4 % ID/cm^3. The “kidney uptake (image-derived)” value in data set [1] (24 h post injection) is on record as 0.1±0.1 % ID/cm^3.

`O=C([O-])CN1CCN(CC(=O)[O-])CCN(CC(=O)O)C(Cc2ccc(NC(=S)NCCCC[C@H](NC(=O)CCOCCOCCOCCOCCn3cc(-c4cccc(NC(=O)NCCCC[C@H](NC(=O)N[C@@H](CCC(=O)O)C(=O)O)C(=O)O)c4)nn3)C(=O)N[C@@H](CCCCNC(=O)Cc3ccc(I)cc3)C(=O)O)cc2)CN(CC(=O)[O-])CC1.[66Ga+3]` (stereo partly drawn) [66Ga-RPS-061]: the “kidney uptake (image-derived)” value in data set [1] (1 h post injection) is listed as 10.5±2.1 % ID/cm^3. Further, in data set [1] (24 h post injection), the “tumor uptake (image-derived)” value is listed as 6.1±1.1 % ID/cm^3.

Turning to `O=C([O-])CN1CCN(CC(=O)[O-])CCN(CC(=O)O)C(Cc2ccc(NC(=S)NCCCC[C@H](NC(=O)CCOCCOCCOCCn3cc(-c4cccc(NC(=O)NCCCC[C@H](NC(=O)N[C@@H](CCC(=O)O)C(=O)O)C(=O)O)c4)nn3)C(=O)N[C@@H](CCCCNC(=O)Cc3ccc(I)cc3)C(=O)O)cc2)CN(CC(=O)[O-])CC1.[66Ga+3]` (stereo partly drawn) [66Ga-RPS-063], in data set [1], the “time of maximum uptake in the tumor” value came out at 6 h and the “maximum uptake in the tumor (image-derived)” value was 9.5±2.4 % ID/cm^3. Also, in data set [1] (24 h post injection), the “tumor uptake (image-derived)” value is listed as 7.9±3.0 % ID/cm^3.

On to `O=C([O-])CN1CCN(CC(=O)[O-])CCN(CC(=O)O)C(Cc2ccc(NC(=S)NCCCC[C@H](NC(=O)CCOCCOCCOCCOCCOCCOCCOCCOCCn3cc(-c4cccc(NC(=O)NCCCC[C@H](NC(=O)N[C@@H](CCC(=O)O)C(=O)O)C(=O)O)c4)nn3)C(=O)N[C@@H](CCCCNC(=O)Cc3ccc(I)cc3)C(=O)O)cc2)CN(CC(=O)[O-])CC1.[66Ga+3]` (stereo partly drawn) [66Ga-RPS-066], for which, in data set [1], the “time of maximum uptake in the tumor” value was found to be 3 h and the “maximum uptake in the tumor (image-derived)” value is listed as 7.8±0.7 % ID/cm^3. In data set [1] (24 h post injection), the “kidney uptake (image-derived)” value was 0.2±0.1 % ID/cm^3 and the “tumor uptake (image-derived)” value is given as 5.5±0.4 % ID/cm^3.

Turning to `O=C(O)CCC(NC(=O)NC(CCCCNC(=O)Nc1cccc(-c2cnnn2CC(=O)NC(CCCCNC(=S)Nc2ccc(CC3CN(CC(=O)O)CCN(CC(=O)O)CCN(CC(=O)O)CCN3CC(=O)O)cc2)C(=O)NC(CCCCNC(=O)Cc2ccc(I)cc2)C(=O)O)c1)C(=O)O)C(=O)O` (stereo not drawn) [66Ga-RPS-068, metal not drawn], in data set [1], the “time of maximum uptake in the tumor” value was found to be 3 h and the “maximum uptake in the tumor (image-derived)” value came to 9.7±2.0 % ID/cm^3. Further, in data set [1] (24 h post injection), the “tumor uptake (image-derived)” value was 8.3±2.8 % ID/cm^3.

Turning to `O=C([O-])CN1CCN(CC(=O)[O-])CCN(CC(=O)O)C(Cc2ccc(NC(=S)NCCCC[C@H](NC(=O)CCOCCOCCOCCOCCOCCOCCn3cc(-c4cccc(NC(=O)NCCCC[C@H](NC(=O)N[C@@H](CCC(=O)O)C(=O)O)C(=O)O)c4)nn3)C(=O)N[C@@H](CCCCNC(=O)Cc3ccc(I)cc3)C(=O)O)cc2)CN(CC(=O)[O-])CC1.[66Ga+3]` (stereo partly drawn) [66Ga-RPS-069], in data set [1] (24 h post injection), the “tumor uptake (image-derived)” value came out at 7.0±3.9 % ID/cm^3.

In the case of `O=C(O)CC[C@H](NC(=O)N[C@@H](CCCCNC(=O)Nc1cccc(-c2cn(CCOCCOCCOCCOCCOCCOCCC(=O)N[C@@H](CCCCNC(=S)Nc3ccc(CC4CN(CC(=O)O)CCN(CC(=O)O)CCN(CC(=O)O)CCN4CC(=O)O)cc3)C(=O)N[C@@H](CCCCNC(=O)Cc3ccc(I)cc3)C(=O)O)nn2)c1)C(=O)O)C(=O)O` (stereo partly drawn) [RPS-069, (((1S)-1-carboxy-5-(3-(3-(1-((23S,26S)-26-carboxy-33-(4-iodophenyl)-21,24,32-trioxo-23-(4-(3-(4-((1,4,7,10-tetrakis(carboxymethyl)-1,4,7,10-tetraazacyclododecan-2-yl)methyl)phenyl)thioureido)butyl)-3,6,9,12,15,18-hexaoxa-22,25,31-triazatritriacontyl)-1H-1,2,3-triazol-4-yl)phenyl)ureido)pentyl)carbamoyl)-L-glutamic acid], the “Max. Tumor Uptake” value in data set [2] turned out to be 17.0 ± 2.1 % ID/g.
